The source of these data is PubChem BioAssay (NCI).

Values joined by “and” are separate entries in the source; they are usually repeats but may differ in a detail not shown here. Equal entries are not always repeated.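 Where inhibition never reached the appropriate level, the endpoint shown equals the highest concentration tested. Otherwise, values were interpolated linearly from a five-concentration, 48-hour dose response in 96-well plates. GI50: concentration for 50% inhibition of growth. At the TGI there is no net growth.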

Test systems include HS 578T breast; HL-60(TB) leukemia; A498 renal; MDA-MB-435; SF-268 CNS; T-47D breast; HCT-15 colon; OVCAR-3 ovarian.
What all share (assay): NCI-60 cell line screen, 48 h

On to `CO[C@H](C(=O)O)[C@@H]1Cc2cc3cc(OC4CC(OC5CC(O)C(O)C(C)O5)C(O)C(C)O4)c(C)c(O)c3c(O)c2C(=O)[C@H]1OC1CC(OC2CC(OC3CC(C)(O)C(O)C(C)O3)C(O)C(C)O2)C(O)C(C)O1` (some centres not stated), for which the GI50 in the experiment with HS 578T breast was 0.161 µM; in the experiment on HL-60(TB) leukemia, 1.06 µM; in the experiment on A498 renal it was 0.135 µM; in the experiment on MDA-MB-435 it was 0.309 µM; with SF-268 CNS, 0.283 µM; in the experiment with T-47D breast, 0.302 µM. Besides, the values for the GI50 with HCT-15 colon and with OVCAR-3 ovarian were 1.66 µM and 0.28 µM, respectively. For the same compound, the TGI in the experiment with HS 578T breast was more than 32.5 µM; in the experiment with HL-60(TB) leukemia, more than 32.5 µM; in the experiment on A498 renal, 0.773 µM; in the experiment on MDA-MB-435, 1.61 µM; in the experiment on SF-268 CNS it was more than 32.5 µM; with T-47D breast it was more than 32.5 µM. The TGI in the experiment on HCT-15 colon was more than 32.5 µM; in the experiment with OVCAR-3 ovarian it was 2.04 µM.

As to `C=CCCC(=O)N1C=CC(=O)[C@H](O)[C@@H]1/C=C/c1ccccc1`, the GI50 was more than 32.5 µM in the experiment with HS 578T breast; 4.35 µM in the experiment on HL-60(TB) leukemia; more than 32.5 µM with A498 renal; 10.7 µM in the experiment with MDA-MB-435; 7.03 µM in the experiment with SF-268 CNS; 15.5 µM in the experiment on T-47D breast. For the same compound, the results for the GI50 in the experiment on HCT-15 colon and with OVCAR-3 ovarian were 2.39 µM and 6.13 µM, respectively. Besides, the TGI was more than 32.5 µM in the experiment with HS 578T breast; 28 µM in the experiment with HL-60(TB) leukemia; more than 32.5 µM in the experiment on A498 renal; more than 32.5 µM with MDA-MB-435; more than 32.5 µM with SF-268 CNS; more than 32.5 µM in the experiment with T-47D breast. Besides, the TGI with HCT-15 colon and with OVCAR-3 ovarian was more than 32.5 µM in each case.

Take `Cc1sc2ncn(Cc3ccc(Cl)c(Cl)c3)c(=O)c2c1C`: the GI50 in the experiment with HS 578T breast is 35.2 µM; in the experiment with HL-60(TB) leukemia, more than 100 µM; in the experiment on A498 renal, 35.7 µM; with MDA-MB-435 it was 8.72 µM; in the experiment with SF-268 CNS it was 25.5 µM; with T-47D breast, 24.8 µM. The values for the GI50 in the experiment with HCT-15 colon and in the experiment with OVCAR-3 ovarian were 19.4 µM and 8.04 µM, respectively. The TGI in the experiment with HS 578T breast, in the experiment on HL-60(TB) leukemia, in the experiment with A498 renal, in the experiment on MDA-MB-435, in the experiment on SF-268 CNS and in the experiment with T-47D breast was more than 100 µM each time. Also, the TGI in the experiment on HCT-15 colon is more than 100 µM; in the experiment with OVCAR-3 ovarian, 38.3 µM.

In the case of `CC(C)(C)C(=O)OCc1nc2cc3c(cc2c(=O)[nH]1)CCC3=O`, the GI50 in the experiment on HS 578T breast, in the experiment on HL-60(TB) leukemia, in the experiment on A498 renal, in the experiment on MDA-MB-435, with SF-268 CNS and in the experiment on T-47D breast was more than 100 µM each time. The GI50 in the experiment on HCT-15 colon and with OVCAR-3 ovarian was more than 100 µM throughout. The TGI in the experiment with HS 578T breast, with HL-60(TB) leukemia, in the experiment with A498 renal, with MDA-MB-435, in the experiment on SF-268 CNS and with T-47D breast was more than 100 µM each time. Also, the TGI with HCT-15 colon and with OVCAR-3 ovarian was more than 100 µM each time.

As to `N=C(N)SCCc1ccccn1`, the TGI in the experiment on HS 578T breast, with HL-60(TB) leukemia, with A498 renal, in the experiment on MDA-MB-435, in the experiment on SF-268 CNS and in the experiment with T-47D breast was more than 100 µM in each case. Besides, the TGI in the experiment with HCT-15 colon and in the experiment with OVCAR-3 ovarian was more than 100 µM throughout. The GI50 in the experiment on A498 renal was 37.8 µM and > 100 µM.

On to `CCOc1cc(C(C)(C)C)ccc1C1=N[C@@](C)(c2ccc(Cl)cc2)[C@@](C)(c2ccc(Cl)cc2)N1C(=O)N1CCN(CCS(C)(=O)=O)CC1`, for which the GI50 was 4.1 µM in the experiment with HS 578T breast; 2.21 µM with HL-60(TB) leukemia; 0.655 µM in the experiment on A498 renal; 3.47 µM with MDA-MB-435; 3.82 µM in the experiment with SF-268 CNS; 3.7 µM in the experiment on T-47D breast. In addition, the GI50 with HCT-15 colon was 2.27 µM; in the experiment on OVCAR-3 ovarian, 3.14 µM. In addition, the TGI with HS 578T breast was determined as 23.9 µM; with HL-60(TB) leukemia it was 5.22 µM; in the experiment on A498 renal, 5.27 µM; with MDA-MB-435, 11.7 µM; in the experiment with SF-268 CNS it was 17.4 µM; with T-47D breast, 57.3 µM. Moreover, the TGI turned out to be 5.79 µM with HCT-15 colon and 9.33 µM with OVCAR-3 ovarian.

On to `CCCCCCNC(=O)Oc1ccc(/C(=C(\C)c2ccccc2)c2ccc(OCCN(CC)CC)cc2)cc1`, for which the GI50 in the experiment on HS 578T breast is 2.92 µM; with HL-60(TB) leukemia, 0.524 µM; in the experiment on A498 renal, 6.93 µM; in the experiment with MDA-MB-435, 3.57 µM; in the experiment on SF-268 CNS, 5.54 µM; in the experiment with T-47D breast it was 1.07 µM. The results for the GI50 in the experiment on HCT-15 colon and in the experiment on OVCAR-3 ovarian were 1.31 µM and 4.73 µM, respectively. The TGI was 11.7 µM in the experiment on HS 578T breast; 5.2 µM in the experiment on HL-60(TB) leukemia; 13.6 µM in the experiment with A498 renal; 10.1 µM in the experiment on MDA-MB-435; 13.1 µM in the experiment with SF-268 CNS; 8.17 µM in the experiment on T-47D breast. The values for the TGI with HCT-15 colon and in the experiment with OVCAR-3 ovarian were 3.68 µM and 11.6 µM, respectively.

As for `c1ccc2nc(OCCN3CC3)ccc2c1`, the GI50 is 20.3 µM with HS 578T breast; 6.59 µM with HL-60(TB) leukemia; 14.2 µM in the experiment with A498 renal; 3.31 µM with MDA-MB-435; 16 µM in the experiment with SF-268 CNS; 12.4 µM with T-47D breast. In addition, the GI50 is 13.3 µM in the experiment on HCT-15 colon and 6.29 µM in the experiment on OVCAR-3 ovarian. In addition, the TGI was 62.2 µM in the experiment on HS 578T breast; 34.9 µM in the experiment with HL-60(TB) leukemia; 30 µM in the experiment with A498 renal; 17.9 µM in the experiment on MDA-MB-435; 35.5 µM with SF-268 CNS; 30.6 µM in the experiment on T-47D breast. Further, the TGI with HCT-15 colon was found to be 46.1 µM; with OVCAR-3 ovarian, 22.1 µM.

Consider `O=C(Nc1ccc(I)cc1F)c1cc(I)ccc1O`, for which the GI50 with HS 578T breast is 0.617 µM; in the experiment on HL-60(TB) leukemia it was 0.517 µM; with A498 renal it was 0.324 µM; in the experiment with MDA-MB-435, 0.723 µM; in the experiment on SF-268 CNS, 0.704 µM; in the experiment with T-47D breast it was 0.649 µM. In addition, the GI50 with HCT-15 colon is 0.452 µM; in the experiment on OVCAR-3 ovarian it was 0.714 µM. The TGI in the experiment with HS 578T breast is 3.95 µM; in the experiment on HL-60(TB) leukemia it was 1.66 µM; in the experiment with A498 renal it was 1.24 µM; in the experiment on MDA-MB-435 it was 7.9 µM; with SF-268 CNS, more than 100 µM; in the experiment on T-47D breast, 2.94 µM. In addition, the TGI with HCT-15 colon was 19.7 µM; in the experiment on OVCAR-3 ovarian it was more than 100 µM.
